How the values were obtained:
HIV-IIIb = assay: Test A: Antiviral assay in MT4 Cells; assay type: cell-based, HIV-1; conditions: Human immunodeficiency virus 1, 120 h; 2 μM drug concentration; MT4 cells infected with HIV-IIIb, 5 days; calculated from dose response curve; values normalized to 100% where greater than 100; read-out: % Inhibition at 2 μM (percent inhibition of virus-induced cell killing)
Procedure: (§1) For the antiviral assay, 40 μL of a concentration required to achieve a final effective 1× test concentration of 3-fold serially diluted compound in culture medium with 10% FBS was added to each well of a 384-well plate (10 concentrations) in quadruplicate. MT4 cells were next mixed with HIV-IIIb at an m.o.i of 0.003 for 1 hour, after which time 35 μL of virus/cell mixture (2000 cells) was immediately added to each well containing 40 μL of diluted compound. The plates were then incubated at 37° C. for 5 days. After 5 days of incubation, 25 μl of 2× concentrated CellTiter-Glo™ Reagent (catalog # G7571, Promega Biosciences, Inc., Madison, Wis.) was added to each well containing MT-4 cells. Cell lysis was carried out by incubating at room temperature for 10 min and then chemiluminescence was read. EC50 values were calculated as the compound concentration that caused a 50% decrease in luminescence signal, a measure of HIV-1 replication. Percent inhibition of virus-induced cell killing calculated from the dose response curve at 2 μM drug concentration is shown in the table below.

[1] = Test B: Cytotoxicity Assay; assay type: cell-based; conditions: human, uninfected MT4 cells, same protocol as Test A
Procedure: as §1, with “below. Compound cytotoxicity and the corresponding CC50 values was determined using the same protocol as described in the antiviral assay (Test A) except that uninfected cells were used.” for “below.”

CN(C(=O)[C@H](Cc1cc(F)cc(F)c1)NC(=O)Cc1cc(F)cc2c1OCOC2)c1ccc(Cl)cc1 [Compound 33, (S)—N-(4-chlorophenyl)-3-(3,5-difluorophenyl)-2-(2-(6-fluoro-4H-benzo[d][1,3]dioxin-8-yl)acetamido)-N-methylpropanamide]
inhibition at 2 µM (HIV-IIIb): 34% | CC50 at 5 days [1]: 18.4 µM

CN(C(=O)[C@H](Cc1cccc(C#N)c1)NC(=O)Cn1nc(C(F)(F)F)c2c1CCCC2)c1ccccc1 [Compound 15, (S)-3-(3-cyanophenyl)-N-methyl-N-phenyl-2-(2-(3-(trifluoromethyl)-4,5,6,7-tetrahydro-1H-indazol-1-yl)acetamido)propanamide]
inhibition at 2 µM (HIV-IIIb): 26% | CC50 at 5 days [1]: 26.3 µM

COc1ccc(N(C)C(=O)[C@H](Cc2ccccc2)NC(=O)Cn2nc(C(F)(F)F)c3c2CCCC3)cc1 [Compound 2]
inhibition at 2 µM (HIV-IIIb): 100% | CC50 at 5 days [1]: 18.4 µM

CN(C(=O)[C@H](CC1CCC1)NC(=O)Cn1nc(C(F)(F)F)c2c1CCCC2)c1ccccc1 [Compound 14]
inhibition at 2 µM (HIV-IIIb): 16% | CC50 at 5 days [1]: 29 µM

CN(C(=O)[C@H](Cc1cscn1)NC(=O)Cn1nc(C(F)(F)F)c2c1CCCC2)c1ccccc1 [Compound 11, (S)—N-methyl-N-phenyl-3-(thiazol-4-yl)-2-(2-(3-(trifluoromethyl)-4,5,6,7-tetrahydro-1H-indazol-1-yl)acetamido)propanamide]
inhibition at 2 µM (HIV-IIIb): 21% | CC50 at 5 days [1]: > 53 µM

CN(C(=O)[C@H](Cc1ccncc1)NC(=O)Cn1nc(C(F)(F)F)c2c1CCCC2)c1ccccc1 [Compound 5]
inhibition at 2 µM (HIV-IIIb): 0% | CC50 at 5 days [1]: > 53 µM

COc1ccc(N(C)C(=O)[C@H](Cc2cc(F)cc(F)c2)NC(=O)Cn2nc(C(F)(F)F)c3c2CCC2(C3)OCCO2)cc1 [Compound 27]
inhibition at 2 µM (HIV-IIIb): 32% | CC50 at 5 days [1]: 19.9 µM

CN(C(=O)[C@H](Cc1cccc(C(N)=O)c1)NC(=O)Cn1nc(C(F)(F)F)c2c1CCCC2)c1ccccc1 [Compound 18, (S)-3-(3-(methyl(phenyl)amino)-3-oxo-2-(2-(3-(trifluoromethyl)-4,5,6,7-tetrahydro-1H-indazol-1-yl)acetamido)propyl)benzamide]
inhibition at 2 µM (HIV-IIIb): 0% | CC50 at 5 days [1]: > 53 µM

CN(C(=O)[C@H](Cc1ccsc1)NC(=O)Cn1nc(C(F)(F)F)c2c1CCCC2)c1ccccc1 [Compound 22, (S)—N-methyl-N-phenyl-3-(thiophen-3-yl)-2-(2-(3-(trifluoromethyl)-4,5,6,7-tetrahydro-1H-indazol-1-yl)acetamido)propanamide]
inhibition at 2 µM (HIV-IIIb): 94% | CC50 at 5 days [1]: 25 µM

COc1ccc(N(C)C(=O)[C@H](Cc2cc(F)cc(F)c2)NC(=O)Cn2ncc3c2CCCC3)cc1 [Compound 31, (S)-3-(3,5-difluorophenyl)-N-(4-methoxyphenyl)-N-methyl-2-(2-(4,5,6,7-tetrahydro-1H-indazol-1-yl)acetamido)propanamide]
inhibition at 2 µM (HIV-IIIb): 78% | CC50 at 5 days [1]: > 53 µM

CN(C(=O)[C@H](Cc1ccccc1)NC(=O)Cn1nc(C(F)(F)F)c2c1CCCC2)c1ccccc1 [Compound 1, (S)—N-methyl-N,3-diphenyl-2-(2-(3-(trifluoromethyl)-4,5,6,7-tetrahydro-1H-indazol-1-yl)acetamido)propanamide]
inhibition at 2 µM (HIV-IIIb): 98% | CC50 at 5 days [1]: 23.5 µM

COc1ccc(N(C)C(=O)[C@H](Cc2cc(F)cc(F)c2)NC(=O)Cn2nc(C(F)(F)F)c3c2CCC(C)(O)C3)cc1 (stereo partly drawn) [Compound 29, (2S)-3-(3,5-difluorophenyl)-2-(2-(5-hydroxy-5-methyl-3-(trifluoromethyl)-4,5,6,7-tetrahydro-1H-indazol-1-yl)acetamido)-N-(4-methoxyphenyl)-N-methylpropanamide]
inhibition at 2 µM (HIV-IIIb): 82% | CC50 at 5 days [1]: 32.1 µM

CN(C(=O)[C@H](Cn1cccn1)NC(=O)Cn1nc(C(F)(F)F)c2c1CCCC2)c1ccccc1 [Compound 12, (S)—N-methyl-N-phenyl-3-(1H-pyrazol-1-yl)-2-(2-(3-(trifluoromethyl)-4,5,6,7-tetrahydro-1H-indazol-1-yl)acetamido)propanamide]
inhibition at 2 µM (HIV-IIIb): 10% | CC50 at 5 days [1]: > 53 µM

CN(C(=O)[C@H](Cc1cccc(C(F)(F)F)c1)NC(=O)Cn1nc(C(F)(F)F)c2c1CCCC2)c1ccccc1 [Compound 21, (S)—N-methyl-N-phenyl-2-(2-(3-(trifluoromethyl)-4,5,6,7-tetrahydro-1H-indazol-1-yl)acetamido)-3-(3-(trifluoromethyl)phenyl)propanamide]
inhibition at 2 µM (HIV-IIIb): 0% | CC50 at 5 days [1]: 11.3 µM

CN(C(=O)[C@H](Cc1cccc(Br)c1)NC(=O)Cn1nc(C(F)(F)F)c2c1CCCC2)c1ccccc1 [Compound 19, (S)-3-(3-bromophenyl)-N-methyl-N-phenyl-2-(2-(3-(trifluoromethyl)-4,5,6,7-tetrahydro-1H-indazol-1-yl)acetamido)propanamide]
inhibition at 2 µM (HIV-IIIb): 27% | CC50 at 5 days [1]: 17.3 µM

CN(C(=O)[C@H](Cc1cc(F)cc(F)c1)NC(=O)Cn1c(N)nc2c1c(=O)[nH]c(=O)n2C)c1ccc(Cl)cc1 [Compound 32, (S)-2-(2-(8-amino-3-methyl-2,6-dioxo-2,3-dihydro-1H-purin-7(6)-yl)acetamido)-N-(4-chlorophenyl)-3-(3,5-difluorophenyl)-N-methylpropanamide]
inhibition at 2 µM (HIV-IIIb): 39% | CC50 at 5 days [1]: > 53 µM

CN(C(=O)[C@H](Cc1cccc(Cl)c1)NC(=O)Cn1nc(C(F)(F)F)c2c1CCCC2)c1ccccc1 [Compound 16, (S)-3-(3-chlorophenyl)-N-methyl-N-phenyl-2-(2-(3-(trifluoromethyl)-4,5,6,7-tetrahydro-1H-indazol-1-yl)acetamido)propanamide]
inhibition at 2 µM (HIV-IIIb): 58% | CC50 at 5 days [1]: 16.7 µM

CN(C(=O)[C@H](Cc1cccc([N+](=O)[O-])c1)NC(=O)Cn1nc(C(F)(F)F)c2c1CCCC2)c1ccccc1 [Compound 17, (S)—N-methyl-3-(3-nitrophenyl)-N-phenyl-2-(2-(3-(trifluoromethyl)-4,5,6,7-tetrahydro-1H-indazol-1-yl)acetamido)propanamide]
inhibition at 2 µM (HIV-IIIb): 0% | CC50 at 5 days [1]: 19.2 µM

CN(C(=O)[C@H](Cc1cccs1)NC(=O)Cn1nc(C(F)(F)F)c2c1CCCC2)c1ccccc1 [Compound 8]
inhibition at 2 µM (HIV-IIIb): 95% | CC50 at 5 days [1]: 25.6 µM

CN(C(=O)[C@H](Cc1ccccn1)NC(=O)Cn1nc(C(F)(F)F)c2c1CCCC2)c1ccccc1 [Compound 7]
inhibition at 2 µM (HIV-IIIb): 1% | CC50 at 5 days [1]: > 53 µM

CN(C(=O)[C@H](Cc1cc(F)cc(F)c1)NC(=O)Cn1[nH]c(=O)c2c1CCCC2)c1ccc(Cl)cc1 [Compound 30]
inhibition at 2 µM (HIV-IIIb): 100% | CC50 at 5 days [1]: 22.2 µM

CN(C)c1ccc(N(C)C(=O)[C@H](Cc2ccccc2)NC(=O)Cn2nc(C(F)(F)F)c3c2CCCC3)cc1 [Compound 23, (S)—N-(4-(dimethylamino)phenyl)-N-methyl-3-phenyl-2-(2(3-(trifluoromethyl)-4,5,6,7-tetrahydro-1H-indazol-1-yl)acetamido)propanamide]
inhibition at 2 µM (HIV-IIIb): 100% | CC50 at 5 days [1]: 19.2 µM

COc1ccc(N(C)C(=O)[C@H](Cc2cc(F)cc(F)c2)NC(=O)Cn2nc(C(F)(F)F)c3c2CCC(=O)C3)cc1 [Compound 28, (S)-3-(3,5-difluorophenyl)-N-(4-methoxyphenyl)-N-methyl-2-(2-(5-oxo-3-(trifluoromethyl)-4,5,6,7-tetrahydro-1H-indazol-1-yl)acetamido)propanamide]
inhibition at 2 µM (HIV-IIIb): 76% | CC50 at 5 days [1]: 37.2 µM

CN(C(=O)[C@H](Cc1cncn1C)NC(=O)Cn1nc(C(F)(F)F)c2c1CCCC2)c1ccccc1 [Compound 9]
inhibition at 2 µM (HIV-IIIb): 5% | CC50 at 5 days [1]: > 53 µM

CN(C(=O)[C@H](Cc1cc(F)cc(F)c1)NC(=O)Cn1nc(C(F)(F)F)c2c1CCCC2)c1ccc(F)cc1 [Compound 24, (S)-3-(3,5-difluorophenyl)-N-(4-fluorophenyl)-N-methyl-2-(2-(3-(trifluoromethyl)-4,5,6,7-tetrahydro-1H-indazol-1-yl)acetamido)propanamide]
inhibition at 2 µM (HIV-IIIb): 93% | CC50 at 5 days [1]: 12.2 µM

CN(C(=O)[C@H](CC1CCOCC1)NC(=O)Cn1nc(C(F)(F)F)c2c1CCCC2)c1ccccc1 [Compound 20, (S)—N-methyl-N-phenyl-3-(tetrahydro-2H-pyran-4-yl)-2-(2-(3-(trifluoromethyl)-4,5,6,7-tetrahydro-1H-indazol-1-yl)acetamido)propanamdide]
inhibition at 2 µM (HIV-IIIb): 0% | CC50 at 5 days [1]: > 53 µM

CN(C(=O)[C@H](Cc1cccnc1)NC(=O)Cn1nc(C(F)(F)F)c2c1CCCC2)c1ccccc1 [Compound 6]
inhibition at 2 µM (HIV-IIIb): 52% | CC50 at 5 days [1]: > 53 µM

Reference: patent publication US10202353B2, “Therapeutic compounds” (Gilead Sciences, Inc., priority 2014, dated 2019)
